Results taken from article PMC7857580, “Substitutional landscape of a split fluorescent protein fragment using high-density peptide microarrays” (PLoS ONE, 2021).
Ends that are not written are not given here.

target: LOO10-GFP (Aequorea victoria, UniProt P42212, S30R/Y39N/F64L/S65T/F99S/N105T/Y145F/M153T/V163A/I171V, form not given); assay type: binding; conditions: read-out: Kd (dissociation constant between s10 peptide and LOO10-GFP); 50 nM LOO10-GFP, 0-2500 nM peptide, assay buffer pH 8, overnight 4°C, read at 25°C; 390ex/506em (WT, H199Y) or 495ex/520em (T203Y, H199Y/T203Y); quadratic fit; 3 independent measurements
Sequence (P42212 whole entry S30R/Y39N/F64L/S65T/F99S/N105T/Y145F/M153T/V163A/I171V, form open): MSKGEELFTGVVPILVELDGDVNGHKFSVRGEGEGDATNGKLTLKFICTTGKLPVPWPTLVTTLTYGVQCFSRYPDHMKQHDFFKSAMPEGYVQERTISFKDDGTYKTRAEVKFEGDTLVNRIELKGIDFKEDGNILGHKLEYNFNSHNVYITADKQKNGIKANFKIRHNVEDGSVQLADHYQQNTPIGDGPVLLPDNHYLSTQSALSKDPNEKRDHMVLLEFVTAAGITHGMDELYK
Description: Fluorescence of each sample was measured at 390/506 nm for T203 variants and at 495/520 nm for Y203 variants, at 25°C, excitation slit 12 nm, emission slit 20 nm and 10s integration time. The affinity experiments were performed in 3 independent replicas for each peptide variant. […] All fits were performed in OriginPro 2017.

Q: NHYLSTQTVLS [WT] was tested. Which Kd did it give?
A: 280 ± 83 nM

Q: How did the Kd turn out when NYYLSYQTVLS [H199Y/T203Y] was run?
A: 32.6 ± 6.3 nM

Q: How did the Kd turn out when NYYLSTQTVLS [H199Y] was run?
A: 53.4 ± 0.4 nM

Q: NHYLSYQTVLS [T203Y] was tested. Which Kd did it give?
A: 152 ± 47 nM
